In US20020032918A1, “Alteration of growth and adaptation under hypoxic conditions” (priority 2000, published 2002):

Experiments:
[1] = tested on: SH2A gene expression; test: Northern blot analysis of SH2A transcript abundance in isolated deepwater rice stem segments treated with hormone or inhibitor solutions; assay type: cell-based, Oryza sativa L.
Procedure: Seeds of deepwater rice (Oryza sativa L., Pin Gaew 56) were obtained from the International Rice Research Institute (Los Baños, The Philippines). Plants were grown for 12 to 14 weeks as described (Sauter, 1997). All experiments were carried out under continuous light (200 μE/m^−2 s^−1) at 25° C. in a growth chamber. For submergence treatment, whole plants were placed in a 600 liter plastic barrel filled with tap water as described (Lorbiecke and Sauter, 1999). Control plants were kept in the same growth chamber. Analysis of hormone and inhibitor effects was performed using excised stem segments containing the upper highest growth responsive internode. (Raskin and Kende, 1984). Stem segments were incubated in 150 ml beakers with 25 ml aqueous solutions containing the indicated concentrations of gibberellin A3 (GA3) or the hormone precursor ethephon (2-chlorethanephosphoric acid, E) or water alone as a control. Control segments were incubated for 0.5 or 3 h in water. For ethephon treatment stem segments were preincubated for 0.5 h in water before adding ethephon for 2.5 h.
To guarantee high humidity, the beakers were placed in plastic cylinders. Ethylene action was inhibited using 2,5-norbornadiene (bicyclo[2.2.1]hepta-2,5-diene, NBD) at a concentration of 50 μl/l in the gas phase as described (Lorbiecke and Sauter, 1999).
To inhibit protein synthesis, stem sections were incubated with aqueous solutions of cycloheximide for 3 hours at the concentrations indicated.
To determine submergence-dependent gene expression, mRNA abundance of SH2A and SH2B was analysed by RNA gel blot hybridization. RNA was isolated from different zones of the youngest internode and from adventitious roots of the third node from airgrown or partially submerged deepwater rice plants. Thus, tissue sections of the highest internode, 0-5 mm above the second node and containing the intercalary meristem; 5-15 mm above the second node containing the elongation zone; and 15-30 mm above the second node and containing the differentiation zone were used (Lorbiecke and Sauter, 1997). Adventitious roots of the third node were isolated as described (Lorbiecke and Sauter, 1999). The tissues were immediately frozen in liquid nitrogen and stored at −70° C. until RNA extraction. Total RNA was isolated with the TRIzol reagent (Gibco BRL) and precipitated with 4 M LiCl as described (Puissant and Houdebine, 1990, Lorbiecke and Sauter, 1999). RNA separation and Northern blot hybridization were carried out as described previously (Lorbiecke and Sauter, 1998). For RNA blot analysis, 20 μg of total RNA was separated by electrophoresis on a 1% (w/v) agarose gel containing 6% formaldehyde. The RNA was blotted to a nylon membrane (Hybond N+; Amersham, Braunschweig, Germany) according to Lorbiecke and Sauter (1998). For hybridization, gene-specific cDNA-fragments covering the 3′-regions of SH2A (nt 496-867) and SH2B (nt 513-980) were random prime labelled with 32P using the ‘Rediprime Labelling Kit’ (Amersham, Braunschweig, Germany). Hybridization was carried out overnight at 68° C. in 1% SDS, 1 M NaCl, 10% (w/v) dextran sulfate and heat-denatured salmon sperm DNA. The blots were washed once in 1× SSC (0.15 M NaCl, 15 mM Na-citrate, pH 7.0) at 68° C. and once in 1× SSC, 1% (w:v) SDS at 68° C. for 10 min each (Sauter, 1997).
To analyse the hormone-dependent expression of the SH2A gene, isolated stem segments containing the youngest internode were treated with different hormone or inhibitor solutions for 2.5 hours. Total RNAs were isolated from the regions containing the intercalary meristem and the elongation zone and were analysed for SH2A transcript abundance (FIG. 8a).

[2] = tested on: endogenous ABA and GA1 levels in internodes; conditions: cited from earlier work
[3] = tested on: seedlings of a submergence intolerant cultivar; conditions: elongation response inhibited by spraying; cited from earlier work

O=P(O)(O)CCCl [ethephon, 2-chloroethanephosphoric acid]
SH2A mRNA levels between 2 and 6 hours ([1]; 150 μM ethephon, meristem and elongation zone): declined to control levels | time of maximal SH2A mRNA abundance ([1]; 150 μM ethephon, meristem and elongation zone, RNA at 1 hour intervals): 2 h | lowest ethephon concentration inducing SH2A transcript accumulation ([1]; 2.5 hours, 0.015-150 μM tested, intercalary meristem): 1.5 µM | SH2A transcript levels ([1]; stem segments treated with 150 μM ethephon, 2.5 h, intercalary meristem and elongation zone): strong increase

C[C@@H]1C[C@@H]([C@H](O)CC2CC(=O)NC(=O)C2)C(=O)[C@@H](C)C1 [cycloheximide]
induction of SH2A gene expression in the presence of the protein synthesis inhibitor ([1]; 150 μM ethephon with cycloheximide, intercalary meristem): occurred | cycloheximide concentration required for SH2A gene induction ([1]; dose response, 3 h, intercalary meristem): ≥ 20 µg/mL | SH2A transcripts after treatment with CHX alone ([1]; stem segments, 3 h, intercalary meristem): accumulation of SH2A transcripts

C=C1C[C@]23C[C@@]1(O)CC[C@H]2[C@@]12C=C[C@H](O)[C@@](C)(C(=O)O1)[C@H]2[C@@H]3C(=O)O [GA3, gibberellin A3]
SH2A transcript levels ([1]; incubation with 50 μM GA3, after 2.5 h, compared with controls): did not result in increased SH2A transcript levels

C=C [ethylene]
increase of endogenous GA1 levels ([2]; at the same time (within three hours)): four-fold | reduction of endogenous ABA levels in internodes ([2]; within three hours of application of ethylene): 75%

C1=CC2C=CC1C2 [norbornadiene, bicyclo[2.2.1]hepta-2,5-diene]
SH2A transcript levels ([1]; ethephon in combination with norbornadiene at 50 μl/l in the gas phase): reduced to control levels

CC(C)(C)[C@@H](O)[C@@H](Cc1ccc(Cl)cc1)n1cncn1 (racemic) [paclobutrazol]
survival of seedlings [3]: greatly enhanced
